In paper PMC10675526, “Development of a Novel Peptide with Antimicrobial and Mineralising Properties for Caries Management” (Pharmaceutics, 2023):
Bridge positions count the residues as written; N and C are the ends. Peptide text beside a SMILES is read from it. * marks the point of attachment. Galloyl = O=C(c1cc(O)c(O)c(O)c1)*

What was measured:
[1] = Mineralising effects on enamel blocks after pH cycling (SEM-EDS, Micro-CT, XRD); design: species or system human; conditions: sound enamel treated twice daily with 160 μM, n = 8 per group, mean ± SD; for Calcium-to-phosphate molar ratio: 8 days pH cycling (16 h pH 4.5, 8 h pH 7.0), SEM-EDS; for Mineral loss / Lesion depth: 8 days pH cycling, Micro-CT; for Mineral loss: MDV control area − MDV demineralised area
Procedure: A total of 40 enamel blocks were prepared from extracted sound human molars. The pH-cycling procedure (16 h demineralisation at pH 4.5 and 8 h remineralisation at pH 7.0) was performed on enamel blocks for 8 days, using solutions that contained calcium and phosphate. The enamel blocks from the same tooth were treated twice daily with 160 μM GAPI (GAPI Group), 160 μM GA (GA Group), 160 μM PI (PI Group) and sterile deionised water (Water Group). The structure of the enamel surface was examined using SEM (n = 8 per group). The elemental analysis of enamel surface was conducted using affiliated energy-dispersive X-ray spectroscopy (EDS). The calcium-to-phosphorus molar ratio was calculated.
The mineral loss and lesion depth on the enamel blocks were assessed using microcomputed tomography (Micro-CT) (1172, SkyScan, Antwerp, Belgium) (n = 8 per group). The parameters of Micro-CT were 80 kV voltage and 100 μA current with a voxel size of 12 μm^3. The image was reconstructed with NRecon software 1.7.4.6 (SkyScan, Antwerp, Belgium) and analysed using CTAn 1.20.3.0 (SkyScan, Antwerp, Belgium) to determine the lesion depth and mineral density values (MDVs, gHApcm^−3). The mineral loss = MDV of the control area − MDV of the demineralised area.
The diffraction patterns of the enamel blocks were evaluated using X-ray diffraction analysis (XRD) (Rigaku SmartLab 9 kW, […]) (n = 2 per group).

[2] = Stability in human saliva (HPLC); assay type: in vitro ADME; conditions: 37 °C
Procedure: The stability of peptides in human saliva (collected from six individual healthy volunteers; three males and three females; minimum age, 29; and maximum age, 36) was investigated by testing the remaining peptide concentration via HPLC system (Waters Pacific Pte Ltd., Singapore). The test was processed following a previous experimental protocol. After centrifuging the saliva and collecting the supernatant, GAPI was added to the sample and incubated at 37 °C for 60 min. A 1 mL sample was taken and analysed using HPLC system.

[3] = test system: S. mutans in three-species biofilm; assay: Growth kinetics of multiple-species biofilm, PMA-qPCR; assay type: cell-based, Streptococcus mutans
Procedure: A multiple-species cariogenic biofilm consisting of S. mutans, L. casei and C. albicans was cultured following a previous protocol. The architecture of the multiple-species biofilm with or without GAPI treatment was assessed using scanning electron microscopy (SEM) and confocal laser scanning microscopy (CLSM). Propidium iodide and […] (DAPI), which highlight bacterial cells, and Concanavalin A (ConA), which labels C. albicans, were used to stain the multiple-species biofilm. The growth kinetics of the multiple-species biofilm were analysed using propidium monoazide–quantitative polymerase chain reaction (PMA-qPCR) (Supplementary Material S1).

SMILES	Calcium-to-phosphate molar ratio [1]	Mineral loss [1] [gHApcm^−3]	Lesion depth [1] [µm]	time stable in saliva [2]	reduction of S. mutans in biofilm versus untreated [3]
O=C(O)c1cc(O)c(O)c(O)c1 [GA, gallic acid]	1.82 ± 0.08	0.88 ± 0.24	62 ± 12	–	–
CC(C)[C@@H]1NC(=O)[C@H](CCCN=C(N)N)NC(=O)[C@H](Cc2ccccc2)NC(=O)[C@@H](NC(=O)[C@H](Cc2c[nH]c3ccccc23)NC(=O)[C@H](CCCN=C(N)N)NC(=O)[C@H](CCCN=C(N)N)NC(=O)c2cc(O)c(O)c(O)c2)CSSC[C@@H](C(=O)N[C@@H](CCCN=C(N)N)C(=O)O)NC(=O)[C@H](CCCCN)NC(=O)[C@H](CCCN=C(N)N)NC(=O)[C@H](Cc2ccc(O)cc2)NC(=O)[C@@H]2CSSC[C@H](NC1=O)C(=O)N[C@@H](Cc1ccc(O)cc1)C(=O)N[C@@H](CCCN=C(N)N)C(=O)NCC(=O)N[C@@H](Cc1ccccc1)C(=O)N2 [GAPI, Gallic-Acid-Polyphemusin-I] (Galloyl-RRWCFRVCYRGFCYRKCR-OH; disulfide 4-17, 8-13)	–	–	–	at least 60 min	–
CC(C)[C@@H]1NC(=O)[C@H](CCCNC(=N)N)NC(=O)[C@H](Cc2ccccc2)NC(=O)[C@@H](NC(=O)[C@H](Cc2c[nH]c3ccccc23)NC(=O)[C@H](CCCNC(=N)N)NC(=O)[C@H](CCCNC(=N)N)NC(=O)c2cc(O)c(O)c(O)c2)CSSC[C@@H](C(=O)N[C@@H](CCCNC(=N)N)C(=O)O)NC(=O)[C@H](CCCCN)NC(=O)[C@H](CCCNC(=N)N)NC(=O)[C@H](Cc2ccc(O)cc2)NC(=O)[C@@H]2CSSC[C@H](NC1=O)C(=O)N[C@@H](Cc1ccc(O)cc1)C(=O)N[C@@H](CCCNC(=N)N)C(=O)NCC(=O)N[C@@H](Cc1ccccc1)C(=O)N2 [GAPI, Gallic-Acid-Polyphemusin-I] (Galloyl-RRWCFRVCYRGFCYRKCR-OH; disulfide 4-17, 8-13; C-terminus assumed)	1.81 ± 0.05	0.89 ± 0.20	64 ± 7	–	more than 10 fold
CC(C)[C@@H]1NC(=O)[C@H](CCCNC(=N)N)NC(=O)[C@H](Cc2ccccc2)NC(=O)[C@@H](NC(=O)[C@H](Cc2c[nH]c3ccccc23)NC(=O)[C@H](CCCNC(=N)N)NC(=O)[C@@H](N)CCCNC(=N)N)CSSC[C@@H](C(=O)N[C@@H](CCCNC(=N)N)C(=O)O)NC(=O)[C@H](CCCCN)NC(=O)[C@H](CCCNC(=N)N)NC(=O)[C@H](Cc2ccc(O)cc2)NC(=O)[C@@H]2CSSC[C@H](NC1=O)C(=O)N[C@@H](Cc1ccc(O)cc1)C(=O)N[C@@H](CCCNC(=N)N)C(=O)NCC(=O)N[C@@H](Cc1ccccc1)C(=O)N2 [PI, Polyphemusin I] (H-RRWCFRVCYRGFCYRKCR-OH; disulfide 4-17, 8-13; N-terminus and C-terminus assumed)	1.70 ± 0.06	1.32 ± 0.26	96 ± 9	–	–
